This note sets out measurements from patent publication US20150320829A1, “Broad Spectrum Bacteriocin for Control of Unwanted Bacteria” (priority 2014, published 2015).

“Also recorded” adds a separate entry of the source.

In data set [1] the test system is non-LAB isolates, such as strains of Staphylococcus, Enterobacter, Bacillus, and Clostridium. As to the kind of experiment: Inhibitory activity spectrum: culture supernatant spotted onto indicator bacterial lawns. Format: cell-based. The protocol:
(§1) FIG. 1 is a schematic representation of the proteins responsible for producing the bacteriocin of the invention. In the discovery of the unique broad spectrum bacteriocin of this invention, indigenous LAB were isolated and purified from the fermentation mash of the commercial ethanol fermentation plants. The identities of the isolates were determined to the species level based on their 16s rDNA sequences. The capability of the isolated LAB strains to produce antimicrobial compounds was identified. Culture supernatants of the strains to be tested were spotted onto individual indicator bacterial culture lawns, which were prepared using a variety of LAB strains of different genera. […] Any positive activity of bacterial growth inhibition from the tested culture supernatant was confirmed again in the same manner, and the inhibitory activity spectrum of the antimicrobial compound is determined. […]
(§2) FIG. 1 is a schematic representation of the proteins responsible for producing the bacteriocin of the invention. The inhibitory activity spectrum of GP15cin against different strains was determined. The active concentration range and the minimum inhibition concentration of the bacteriocin are determined using different indicator strains. The activity levels of the bacteriocin present in the raw bacterial culture supernatants and/or in partially purified mixtures were also determined. […]

For data set [2], the system named is Lactobacillus GP15 (production host). As to the kind of experiment: Activity against own production host. It counts as cell-based, Lactobacillus plantarum. The text has this:
As noted above, GP-15cin may be applied alone or in combination with other bacteriocin and/or bacteriophage virulent for unwanted bacteria in the same system. Bacteriocin producing hosts are immune to the bacteriocins produced by themselves. GP-15cin is therefore not active against its own production host, […]. […] Therefore it is desirable to combine GP-15cin with a different bacteriocin in a cocktail that will kill the bacteria insensitive to GP15cin. Additionally GP-15cin may be combined with other antimicrobial agents to broaden the scope of effectiveness against the range of unwanted bacteria that are targeted. For example the combination of bacteriocin and bacteriophage (phage) ensures a broader inhibition spectrum and more efficient control of the bacteria contamination. Phage targeting these non-sensitive strains can be isolated, and be combined with the bacteriocin for a complete control of contaminating bacteria.

Data set [3] in a line: Stability of bacteriocin activity at different temperatures and pH values. It counts as physicochemical. The text has this:
FIG. 1 is a schematic representation of the proteins responsible for producing the bacteriocin of the invention. Either using crude, partially or completely purified form, the chemical characteristics of the bacteriocins can be determined. The determined characteristics include their sensitivities to different enzymes, stability at different temperatures and pH values, etc. Sensitivity of the bacteriocin to proteolytic and lipolytic enzymes, such as trypsin, pepsin, pronase, lipase, etc, was tested. The proteinaceus nature of GP15cin was confirmed. […] The same bacteriocin has optimal activity in the pH range of 4-10.

Data set [4] deals with LAB isolates from commercial ethanol plants (multiple species of Lactobacillus, Lactococcus, Weissella, Leuconostoc, Pediococcus, Enterococcus, and …). As to the kind of experiment: Inhibitory activity spectrum: culture supernatant spotted onto indicator bacterial lawns. Format: cell-based, lactic acid bacteria. The protocol:
as §1, §2

For data set [5], the system named is Lactobacillus fermentum strain 0315-25. As to the kind of experiment: Batch culture growth inhibition, bacteriocin and phage alone and combined. It counts as cell-based. Conditions: 24 h. The protocol: Bacteriocin alone, bacteriophage alone, and bacteriocin combined with phage were tested against Lactobacillus in batch culture systems. To be specific, logarithmic growth phase cultures of Lactobacillus fermentum strain 0315-25 (OD600 being 0.1) were treated either with single agent at different doses, such as bacteriocin GP15cin alone at different doses (0.1%, 1%, and 10%, v/v), or a phage designated herein as LferInf alone at different MOIs (0.1, 1, and 10), or two agents combined together at different doses, such as 0.1% GP15cin plus LferInf at MOI of 0.1, 0.1% GP15cin plus phage LferInf at MOI of 1, 1% GP15cin plus LferInf at MOI of 0.1, and 1% GP15cin plus phage LferInf at MOI of 1. Culture without any treatment was served as control. LferInf is a bacteriophage isolated from wastewater and found to be effective against a broad host range of Lactobacillus and described in more detail below. The growth of bacteria was monitored for 24 h, and the treatment effects were compared.

Another data set concerns contaminating LAB. As to the kind of experiment: Lactic acid and acetic acid levels during laboratory-scale ethanol fermentation. It counts as cell-based, lactic acid bacteria. The text has this:
GP15cin described herein were produced by a L. plantarum strain, which was isolated from the indigenous LAB populations present during commercial ethanol fermentation. GP15cin can act towards species and/or strains of similar indigenous LAB populations and thus can be used as an effective control for contaminating LAB. […] Either fermentor or mash cooler mash samples were collected from 6 different commercial ethanol plants on 13 different days from 2012 to 2014. Results of 15 independent tests are shown. […] It is likely that the effects on controlling contaminating bacteria and acids will be even more significant if a higher dose of […] is used. The presented results highlight the feasibility of GP15cin application for control of unwanted bacteria in ethanol and other biofuel industries.

Data set [6] has as its system indigenous contaminating bacteria in fermentation mash from commercial ethanol plants. As to the kind of experiment: Reduction of indigenous contaminating bacterial levels in ethanol fermentation mash. Format: cell-based. Conditions: crude form. The protocol: FIG. 1 is a schematic representation of the proteins responsible for producing the bacteriocin of the invention. The inhibitory activity spectrum of GP15cin against different strains was determined. The active concentration range and the minimum inhibition concentration of the bacteriocin are determined using different indicator strains. The activity levels of the bacteriocin present in the raw bacterial culture supernatants and/or in partially purified mixtures were also determined. […] FIG. 2 to FIG. 11 show the effectiveness of GP15cin in reducing the total levels of indigenous bacteria presented in fermentation mash from different commercial ethanol plants. The exact identities of the indigenous bacteria population in different plants are unknown and are likely highly diverse.
GP15cin described herein were produced by a L. plantarum strain, which was isolated from the indigenous LAB populations present during commercial ethanol fermentation. GP15cin can act towards species and/or strains of similar indigenous LAB populations and thus can be used as an effective control for contaminating LAB. […] Either fermentor or mash cooler mash samples were collected from 6 different commercial ethanol plants on 13 different days from 2012 to 2014. Results of 15 independent tests are shown. […]

Take plantaricin W [GP15cin]: the “killing activity against non-LAB isolates” value in data set [1] is recorded as “showed killing activity”. Moreover, the “activity against its own production host” value in data set [2] was “not active”. Also, in data set [3], the “pH range of optimal activity” value is given as 4-10 pH. Also, the “loss of activity / heat resistance” value in data set [3] (after 2 hours at 120° C.) is given as “not a complete loss of activity”. For the same substance, the “reversibility of activity loss” value in data set [3] (extreme pH values) was “does not appear to be reversible”. For the same substance, in data set [3] (pH 12), the loss of activity result was “complete loss of activity”. Besides, the reduction in activity is recorded as 50% in data set [3] (pH values of 1, 2, 3, and 11); 87.5% in data set [3] (temperature of 12.0° C. (so in the source)); 50% in data set [3] (temperatures of 65-100° C.). The “killing spectrum against a list of bacteria” value in data set [4] (LAB genera plus Staphylococcus, Enterobacter, Bacillus, Clostridium) is reported as “extremely broad killing spectrum”. The “killing activity against LAB isolates” value in data set [4] (LAB isolates from commercial ethanol plants) was “broad range killing activity against the vast majority of the LAB isolates”. For the same substance, the “growth of L. fermentum compared to control” value in data set [5] (GP15cin alone at 0.1% v/v) was “all treatment, except GP15cin used at 0.1%, suppressed the growth”; in data set [5] (GP15cin alone at 1% and 10% v/v), “suppressed the growth”. For the same substance, the “acetic acid level produced by contaminating LAB” value with contaminating LAB is listed as “significantly reduced”. Moreover, the “lactic acid level produced by contaminating LAB” value with contaminating LAB is given as “significantly reduced”. The “time in which the reduction effect was seen” value in data set [6] is ≥ 2 h. Moreover, the “reduction of indigenous contaminating bacteria levels” value in data set [6] (mash from 6 commercial ethanol plants, 15 independent tests) is given as “consistent reduction effects seen in all tests; also recorded: reduced indigenous contaminating bacteria levels in all mash samples”.
